One data set has as its system Litomosoides carinii. Nature of the data set: filaricidal activity in cotton rats infected with Litomosoides carinii (dead adult filaria in pleural cavity). The settings on record: sc, 1008 h, s.c., infected cotton rats treated 14 weeks after infection, dissected 42 days after treatment, dosage at which 90% of worms are dead, Probit analysis. The data set is classed as in vivo, Litomosoides carinii in cotton rats (Sigmodon hispidus). The protocol: (§1) The filaricidal activity of the compounds of formula III can be determined, for example, on cotton rats (Sigmodon hispidus) which have been infected with Litomosoides carinii. The infection with L. carinii is transmitted by the blood-sucking mite (Bdellonyssus bacoti) in which the development of the microfilaria to infectious larvae takes place. The cotton rats are infected by exposing them to bites of infected mites. Fourteen (14) weeks after the infection, groups of 2-4 animals are treated subcutaneously with the compound to be tested. Forty-two (42) days after treatment with the compound to be tested, the experimental animals are dissected, whereby the adult filaria are removed from the pleural cavity. Living and dead or encapsulated worms are separated from one another and weighed. The filaricidal activity is expressed as the percentage proportion of dead macrofilaria per treatment group. The ED90 is then determined by means of Probit analysis using the values from different dosage groups. The ED90 is that dosage at which 90% of the worms removed from the pleural cavity are dead. In the following Table, there are compiled the results which have been obtained in the previously described test with representative members of the class of compound defined by formula III. Moreover, the Table contains data concerning the acute toxicity of some of these compounds in mg/per kg in the case of single oral administration to mice.

The nature of data set [1]: acute toxicity, single oral administration to mice. The note with it: mouse, in vivo, p.o. The protocol: as §1, with “Moreover, the Table contains data concerning the acute toxicity of some of these compounds in mg/per kg in the case of single oral administration to mice.” left out

`CN(C)C=Cc1n(N=Cc2ccc(N(C)C)cc2)cc[n+]1N=Cc1ccc(N(C)C)cc1.[Cl-]` [Compound A, 1,3-bis[[p-(dimethylamino)benzylidene]amino]-2-[2-(dimethylamino)vinyl]imidazolium chloride]: in the data set with Litomosoides carinii, the ED90 came to 1 mg/kg. Also, the LD50 in data set [1] lay in the range of 312 to 625 mg/kg.

`CC(C)c1n(N=Cc2ccc(N(C)C)cc2)cc[n+]1N=Cc1ccc(N(C)C)cc1.[Cl-]` [Compound B, 1,3-bis[[p-(dimethylamino)benzylidene]amino]-2-isopropyl-imidazolium chloride]: in the data set with Litomosoides carinii, the ED90 is 0.5 mg/kg. For `Cc1n(N=Cc2ccc(N(C)C)cc2)cc[n+]1N=Cc1ccc(N(C)C)cc1.[Cl-]` [Compound C, 1,3-bis[[p-(dimethylamino)benzylidene]amino]-2-methylimidazolium chloride], in the data set on Litomosoides carinii, the ED90 is 0.85 mg/kg. The compound `CN(C)c1ccc(C=Nn2cc[n+](N=Cc3ccc(N(C)C)cc3)c2-c2ccccc2)cc1.[Cl-]` [Compound D, 1,3-bis[[p-(dimethylamino)benzylidene]amino]-2-phenylimidazolium chloride] returned an ED90 in the data set on Litomosoides carinii of less than 1 mg/kg. This compound also gave an LD50 in data set [1] of 1250 to 2500 mg/kg.

Values taken from US4808727A, “Imidazolium hydrogen carbonates” (Hoffmann-LaRoche Inc., priority 1986, dated 1989).
